What was measured:
[1] = test system: patient with diminished ovarian reserve; assay: Case of a low-responder patient: FSH needed to ovulate, with and without estradiol patch and low dose hCG; type: in vivo, human
Protocol: To ovulate a single follicle, they required a follicle stimulating hormone level of 18 IU/L, with a typical threshold value of FSH required for a regularly cycling young and healthy woman in the range of 5 IU/L or less. This patient was also characterized by their physician as a low responder to FSH, which refers to a patient who requires high follicle stimulating hormone doses to ovulate even a single follicle. […] In the first two menstrual cycles, the patient was treated using the method as described supra, with a high dose follicle stimulating hormone (FSH) at a total dosage of FSH at about 5,000 IU across the cycle with very high threshold dosage and threshold peak follicle stimulating hormone levels like that of an AMA person with high FSH, in the first cycle and second cycle to induce follicle growth to the ovulatory stage. In the third consecutive treatment cycle, the above-described regimen was supplemented with an estradiol patch delivering 17-beta estradiol for several days until the commencement of stimulation with FSH medication. The patch was then continued daily during the period of stimulated until the evening before expected hCG injection, when it was removed. This was designed to coincide to approximate the timing of the estradiol surge. […]

[2] = woman given daily FSH injections at a given dosage; cited from earlier work
[3] = test system: follicular growth to ovulation; details: Schoemaker study; cited from earlier work

Substance: follicle stimulating hormone
- follicle stimulating hormone level required to ovulate a single follicle ([1]; COHS cycle, severe GnRHa suppression): 18 IU/L
- total dosage of FSH across the cycle to induce follicle growth to the ovulatory stage ([1]; first and second cycles, without estradiol and hCG supplementation): about 5,000 IU
- time for steady-state levels of FSH to be established [2]: 4 days
- threshold level of serum FSH for follicular growth to ovulation [3]: 7.8 IU

— patent publication US20150273020A1, “Hormone Normalization Therapy and Uses Therefor” (priority 2007, published 2015)
